Measured values: ChEMBL document CHEMBL5550094, “Design, synthesis and anti-necroptosis activity of fused heterocyclic MLKL inhibitors” (Bioorg Med Chem, 2024)
The source made the active and inactive calls. The rule behind the calls is not given here.

Tests used:
HT-29 [1] = assay: Anti-necroptosis activity against TNFalpha/Smac mimetic/Z-VAD-fmk-induced human HT-29 cells by CellTiter luminescence cell viability assay; format: functional, cell-based
[2] = Anti-necroptosis activity against TNF-alpha induced human Jurkat-FADD-/- cells pretreated for 30 mins followed by TNF-alpha addition and further incubated overnight by CellTiter-Glo 2.0 assay; format: functional, cell-based
HT-29 [3] = assay: Anti-necroptosis activity against TNFalpha/Smac mimetic/Z-VAD-fmk-induced human HT-29 cells measured after 24 hrs by CellTiter-Glo assay; format: functional, cell-based; conditions: HT-29, 24 h
[4] = target: T1, Mixed lineage kinase domain-like protein (Homo sapiens) (UniProt Q8NB16); assay: Covalent inhibition of MLKL in TNFalpha/Smac mimetic/Z-VAD-fmk-induced human HT-29 cells assessed as inhibition of necroptosis pretreated for 3 hrs followed by washout and further treated with TNFalpha/Smac mimetic/Z-VAD-fmk and measured after 8 hrs by CellTiter luminescence cell viability assay; format: cell-based
T1 sequence (whole entry): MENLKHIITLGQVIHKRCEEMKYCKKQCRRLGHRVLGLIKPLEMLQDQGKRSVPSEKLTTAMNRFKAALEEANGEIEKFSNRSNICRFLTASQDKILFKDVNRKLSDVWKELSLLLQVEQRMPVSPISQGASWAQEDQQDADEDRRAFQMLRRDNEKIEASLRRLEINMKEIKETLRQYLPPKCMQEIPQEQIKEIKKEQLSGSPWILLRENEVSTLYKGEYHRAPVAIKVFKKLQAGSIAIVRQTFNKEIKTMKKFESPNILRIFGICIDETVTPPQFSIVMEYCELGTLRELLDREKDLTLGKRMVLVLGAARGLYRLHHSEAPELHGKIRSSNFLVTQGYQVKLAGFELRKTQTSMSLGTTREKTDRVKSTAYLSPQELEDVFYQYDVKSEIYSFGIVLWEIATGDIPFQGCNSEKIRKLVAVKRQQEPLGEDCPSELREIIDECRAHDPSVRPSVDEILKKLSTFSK

[5] = target: T1, Mixed lineage kinase domain-like protein (Homo sapiens); assay: Covalent inhibition of MLKL in TNFalpha/Smac mimetic/Z-VAD-fmk-induced human HT-29 cells assessed as inhibition of necroptosis pretreated for 1 hrs followed by washout and further treated with TNFalpha/Smac mimetic/Z-VAD-fmk and measured after 8 hrs by CellTiter luminescence cell viability assay; format: cell-based
[6] = target: T1, Mixed lineage kinase domain-like protein (Homo sapiens); assay: Covalent inhibition of MLKL in TNFalpha/Smac mimetic/Z-VAD-fmk-induced human HT-29 cells assessed as inhibition of necroptosis pretreated for 5 mins followed by washout and further treated with TNFalpha/Smac mimetic/Z-VAD-fmk and measured after 8 hrs by CellTiter luminescence cell viability assay; format: cell-based
[7] = target: T2, Receptor-interacting serine/threonine-protein kinase 3 (Homo sapiens, UniProt Q9Y572); assay: Inhibition of RIPK3 phosphorylation in TNFalpha/Smac mimetic/Z-VAD-fmk-induced human HT-29 cells at 2 uM measured after 6 hrs by Western blot analysis; format: cell-based
Target sequence in this assay (Q9Y572 whole entry, looked up, the tested form may be a part): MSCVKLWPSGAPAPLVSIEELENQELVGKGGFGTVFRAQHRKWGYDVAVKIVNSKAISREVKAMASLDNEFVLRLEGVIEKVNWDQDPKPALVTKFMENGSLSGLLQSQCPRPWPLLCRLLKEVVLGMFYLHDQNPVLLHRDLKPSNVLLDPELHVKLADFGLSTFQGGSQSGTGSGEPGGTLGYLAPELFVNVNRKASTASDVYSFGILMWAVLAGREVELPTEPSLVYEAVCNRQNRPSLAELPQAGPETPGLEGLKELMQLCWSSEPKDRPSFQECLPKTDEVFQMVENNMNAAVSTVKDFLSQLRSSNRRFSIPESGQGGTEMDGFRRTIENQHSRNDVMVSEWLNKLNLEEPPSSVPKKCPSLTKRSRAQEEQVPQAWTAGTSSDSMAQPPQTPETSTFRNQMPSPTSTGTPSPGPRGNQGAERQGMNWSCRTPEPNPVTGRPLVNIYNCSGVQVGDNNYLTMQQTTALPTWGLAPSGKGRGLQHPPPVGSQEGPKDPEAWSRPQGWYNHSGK

[8] = target: T1, Mixed lineage kinase domain-like protein (Homo sapiens); assay: Inhibition of MLKL phosphorylation in TNFalpha/Smac mimetic/Z-VAD-fmk-induced human HT-29 cells at 2 uM measured after 6 hrs by Western blot analysis; format: cell-based
L929 = assay: Anti-necroptosis activity against TNF-alpha/Z-VAD-FMK induced mouse L929 cells at 20 uM; format: functional, cell-based
[9] = target: T3, Receptor-interacting serine/threonine-protein kinase 1 (Homo sapiens, UniProt Q13546); assay: Binding affinity to RIPK1 (unknown origin) assessed as dissociation constant by displacement assay
T3 sequence (Q13546 whole entry): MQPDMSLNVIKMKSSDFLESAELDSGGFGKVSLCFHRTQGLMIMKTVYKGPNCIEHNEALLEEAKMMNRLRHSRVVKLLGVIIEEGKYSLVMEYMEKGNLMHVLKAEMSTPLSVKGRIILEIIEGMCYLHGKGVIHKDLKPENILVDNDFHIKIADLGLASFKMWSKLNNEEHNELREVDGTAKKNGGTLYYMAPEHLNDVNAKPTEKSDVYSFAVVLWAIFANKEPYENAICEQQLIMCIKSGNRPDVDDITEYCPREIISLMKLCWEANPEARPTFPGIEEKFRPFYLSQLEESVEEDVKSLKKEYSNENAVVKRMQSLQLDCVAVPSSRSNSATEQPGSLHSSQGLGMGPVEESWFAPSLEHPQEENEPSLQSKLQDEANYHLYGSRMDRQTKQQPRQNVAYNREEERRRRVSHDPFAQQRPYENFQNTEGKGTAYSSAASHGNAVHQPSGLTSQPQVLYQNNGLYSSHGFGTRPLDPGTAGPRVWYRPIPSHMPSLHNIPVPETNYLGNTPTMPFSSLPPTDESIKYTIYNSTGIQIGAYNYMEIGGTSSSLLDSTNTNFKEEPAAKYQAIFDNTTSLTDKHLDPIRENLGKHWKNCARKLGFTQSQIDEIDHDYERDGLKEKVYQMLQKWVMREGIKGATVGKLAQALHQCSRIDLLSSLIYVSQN

[10] = target: T2, Receptor-interacting serine/threonine-protein kinase 3; assay: Binding affinity to RIPK3 (unknown origin) assessed as dissociation constant by displacement assay
Target sequence in this assay (Q9Y572 whole entry, the tested form may be a part): as the sequence (Q9Y572 whole entry, looked up, the tested form may be a part) above

Compound	EC50 (HT-29 [1]) [µM]	other results
COc1ccc2sc(NS(=O)(=O)c3ccc(NC(=O)/C=C/c4ccc([N+](=O)[O-])s4)cc3)nc2c1	7.03	
O=C(/C=C/c1ccc([N+](=O)[O-])s1)Nc1ccc(S(=O)(=O)Nc2ncnc3ccccc23)cc1	0.526	
C[C@@H](Oc1cc(-c2cnn(C3CCNCC3)c2)cnc1N)c1c(Cl)ccc(F)c1Cl [CRIZOTINIB]		IC50 [2]: > 40 µM
COc1ccc2nc(NS(=O)(=O)c3ccc(NC(=O)/C=C/c4ccc([N+](=O)[O-])s4)cc3)sc2c1	5.08	
O=C(/C=C/c1ccc([N+](=O)[O-])s1)Nc1ccc(S(=O)(=O)Nc2cnc3ccccc3n2)cc1	0.384	
O=C(/C=C/c1ccc([N+](=O)[O-])s1)Nc1ccc(S(=O)(=O)Nc2nc3ccc(C(F)(F)F)cc3s2)cc1	> 20	
Cn1c(NS(=O)(=O)c2ccc(NC(=O)/C=C/c3ccc([N+](=O)[O-])s3)cc2)nc2ccccc21	0.478	
COc1nccnc1NS(=O)(=O)c1ccc(NC(=O)CCc2cccs2)cc1		EC50 (HT-29 [3]): > 20 µM
O=C(/C=C/c1ccc([N+](=O)[O-])s1)Nc1ccc(S(=O)(=O)Nc2ccnc3ccccc23)cc1	0.579	
O=C(/C=C/c1ccc([N+](=O)[O-])s1)Nc1ccc(S(=O)(=O)Nc2nc3ccc(F)cc3s2)cc1	5.15	
O=C(/C=C/c1ccc([N+](=O)[O-])s1)Nc1ccc(S(=O)(=O)Nc2nc3cc(Cl)ccc3s2)cc1	16.2	
COc1nccnc1NS(=O)(=O)c1ccc(NC(=O)/C=C/c2cccs2)cc1		EC50 (HT-29 [3]): > 20 µM
O=C(/C=C/c1ccc([N+](=O)[O-])s1)Nc1ccc(S(=O)(=O)Nc2cc3ccccc3cn2)cc1	0.621	
O=C(/C=C/c1ccc([N+](=O)[O-])s1)Nc1ccc(S(=O)(=O)Nc2cncc3ccccc23)cc1	0.427	
O=C(/C=C/c1ccc([N+](=O)[O-])s1)Nc1ccc(S(=O)(=O)Nc2ccc3ccccc3n2)cc1	0.329	
COc1nccnc1NS(=O)(=O)c1ccc(NC(=O)CCc2ccc([N+](=O)[O-])s2)cc1		EC50 (HT-29 [3]): > 20 µM
O=C(/C=C/c1ccc([N+](=O)[O-])s1)Nc1ccc(S(=O)(=O)Nc2nc3ccc(Cl)cc3s2)cc1	13.8	
COc1nccnc1NS(=O)(=O)c1ccc(NC(=O)/C=C/c2ccc([N+](=O)[O-])o2)cc1	6.41	
O=C(/C=C/c1ccc([N+](=O)[O-])s1)Nc1ccc(S(=O)(=O)Nc2nc3ccc(Br)cc3s2)cc1	> 20	

Compound	EC50 (HT-29 [1]) [µM]	other results
O=C(/C=C/c1ccc([N+](=O)[O-])s1)Nc1ccc(S(=O)(=O)Nc2nc3cc(Br)ccc3s2)cc1	> 20	
O=C(/C=C/c1ccc([N+](=O)[O-])s1)Nc1ccc(S(=O)(=O)Nc2nc3c(Br)cccc3s2)cc1	7.35	
O=C(/C=C/c1ccc([N+](=O)[O-])s1)Nc1ccc(S(=O)(=O)Nc2nc3c(Cl)cccc3s2)cc1	6.23	
O=C(/C=C/c1ccc([N+](=O)[O-])s1)Nc1ccc(S(=O)(=O)Nc2ccc3nccnc3c2)cc1	0.48	
Cc1ccc2sc(NS(=O)(=O)c3ccc(NC(=O)/C=C/c4ccc([N+](=O)[O-])s4)cc3)nc2c1	2.58	
O=C(/C=C/c1ccc([N+](=O)[O-])s1)Nc1ccc(S(=O)(=O)Nc2nc3ccccc3o2)cc1	1.57	
O=C(/C=C/c1ccc([N+](=O)[O-])s1)Nc1ccc(S(=O)(=O)Nc2nccc3ccccc23)cc1	0.734	
O=C(/C=C/c1ccc([N+](=O)[O-])s1)Nc1ccc(S(=O)(=O)Nc2nc3cc(F)ccc3s2)cc1	6.75	
Cc1cccc2sc(NS(=O)(=O)c3ccc(NC(=O)/C=C/c4ccc([N+](=O)[O-])s4)cc3)nc12	2.75	
COc1cccc2sc(NS(=O)(=O)c3ccc(NC(=O)/C=C/c4ccc([N+](=O)[O-])s4)cc3)nc12	0.596	inhibition [4]: Active; inhibition [5]: Active; inhibition [6]: inactive; inhibition [7]: inactive; inhibition [8]: inactive; Activity (L929): inactive
Cc1ccc2nc(NS(=O)(=O)c3ccc(NC(=O)/C=C/c4ccc([N+](=O)[O-])s4)cc3)sc2c1	2.91	
O=C(/C=C/c1ccc([N+](=O)[O-])s1)Nc1ccc(S(=O)(=O)Nc2nc3ccccc3s2)cc1	1.51	
O=C(/C=C/c1ccc([N+](=O)[O-])s1)Nc1ccc(S(=O)(=O)Nc2cnc3ccccc3c2)cc1	0.406	
Nc1nccnc1C(=O)O[C@@H](C(=O)Nc1ccc(F)cc1)c1ccccc1		Kd [9]: > 30 µM; Kd [10]: > 30 µM; IC50 [2]: > 40 µM
O=C(/C=C/c1ccc([N+](=O)[O-])s1)Nc1ccc(S(=O)(=O)Nc2nc3c(F)cccc3s2)cc1	7.46	
COc1nccnc1NS(=O)(=O)c1ccc(NC(=O)/C=C/c2ccc([N+](=O)[O-])s2)cc1		EC50 (HT-29 [3]): 0.447 µM; inhibition [7]: inactive; inhibition [8]: inactive
O=C(/C=C/c1ccc([N+](=O)[O-])s1)Nc1ccc(S(=O)(=O)Nc2nc3ccc(OC(F)(F)F)cc3s2)cc1	> 20	
O=C(/C=C/c1ccc([N+](=O)[O-])s1)Nc1ccc(S(=O)(=O)Nc2ncc3ccccc3n2)cc1	0.148	inhibition [4]: Active; inhibition [5]: Active; inhibition [6]: inactive; inhibition [7]: inactive; inhibition [8]: inactive; Activity (L929): inactive
